Experiments:
[1] = tested on: Arabidopsis plants, construct hemF_tpsAMATU_PPO2 (SEQ ID NO 116); assay: Tolerance of transgenic T1 Arabidopsis plants to herbicides, greenhouse (Tolerance Factor); format: in vivo, Arabidopsis thaliana
[2] = tested on: Arabidopsis plants, construct hemF_tplAMATU_PPO2 (SEQ ID NO 115); assay: as above; format: in vivo, Arabidopsis thaliana
[3] = tested on: Arabidopsis plants, construct hemF_tpFNR (SEQ ID NO 114); assay: as above; format: in vivo, Arabidopsis thaliana
[4] = tested on: Arabidopsis plants, construct hemG_tplAMATU_PPO2 (SEQ ID NO 118); assay: as above; format: in vivo, Arabidopsis thaliana
[5] = tested on: Wildtype/non-transgenic Arabidopsis thaliana; assay: Herbicide injury evaluation of Arabidopsis plants, greenhouse; format: in vivo; details: scale 0-100
[6] = tested on: Arabidopsis plants, construct hemG_tpFNR (SEQ ID NO 117); assay: Tolerance of transgenic T1 Arabidopsis plants to herbicides, greenhouse (Tolerance Factor); format: in vivo, Arabidopsis thaliana
[7] = tested on: transgenic Arabidopsis thaliana, transgene SEQ ID NO 128; assay: Herbicide injury evaluation of Arabidopsis plants, greenhouse; format: in vivo; details: Table 3, scale 0-100
[8] = tested on: Arabidopsis plants, construct CHLSP_PPO_wt_tpFNR (SEQ ID NO 128); assay: Tolerance of transgenic T1 Arabidopsis plants to herbicides, greenhouse (Tolerance Factor); format: in vivo, Arabidopsis thaliana
[9] = tested on: Arabidopsis plants, construct RHOMA_PPO_wt_tpAMATU_PPO2 (SEQ ID NO 127); assay: as above; format: in vivo, Arabidopsis thaliana
[10] = tested on: transgenic Arabidopsis thaliana, transgene SEQ ID NO 119; assay: Herbicide injury evaluation of Arabidopsis plants, greenhouse; format: in vivo; details: Table 3, scale 0-100
[11] = tested on: Arabidopsis plants, construct RHOMA_PPO_F420V_tpFNR (SEQ ID NO 124); assay: Tolerance of transgenic T1 Arabidopsis plants to herbicides, greenhouse (Tolerance Factor); format: in vivo, Arabidopsis thaliana
[12] = tested on: Arabidopsis plants, construct OPITE_PPO_wt_tpFNR (SEQ ID NO 121); assay: as above; format: in vivo, Arabidopsis thaliana
[13] = tested on: transgenic Arabidopsis thaliana, transgene SEQ ID NO 117; assay: Herbicide injury evaluation of Arabidopsis plants, greenhouse; format: in vivo; details: Table 3, scale 0-100
[14] = tested on: Arabidopsis plants, construct hemG_tpsAMATU_PPO2 (SEQ ID NO 119); assay: Tolerance of transgenic T1 Arabidopsis plants to herbicides, greenhouse (Tolerance Factor); format: in vivo, Arabidopsis thaliana
[15] = tested on: Arabidopsis plants, construct RHOMA_PPO_wt_tpFNR (SEQ ID NO 123); assay: as above; format: in vivo, Arabidopsis thaliana
[16] = tested on: transgenic Arabidopsis thaliana, transgene SEQ ID NO 121; assay: Herbicide injury evaluation of Arabidopsis plants, greenhouse; format: in vivo; details: Table 3, scale 0-100
[17] = tested on: transgenic Arabidopsis thaliana, transgene SEQ ID NO 118; assay: as above; format: in vivo; details: scale 0-100
[18] = tested on: transgenic Arabidopsis thaliana, transgene SEQ ID NO 120; assay: as above; format: in vivo; details: Table 4, scale 0-100

Structure (SMILES): C#CCN1C(=O)C(F)(F)Oc2cc(F)c(-n3c(=O)n(C)c(=S)n(C)c3=O)cc21 [Trifludimoxazine, 1,5-dimethyl-6-thioxo-3-(2,2,7-trifluoro-3-oxo-4-(prop-2-ynyl)-3,4-dihydro-2H-benzo[b][1,4]oxazin-6-yl)-1,3,5-triazinane-2,4-dione]
- Tolerance Factor [1]: 1
- Tolerance Factor [2]: 1
- Tolerance Factor [3]: 1
- Tolerance Factor [4]: 9167
- Herbicide injury evaluation 14 days after herbicide treatment ([5]; Table 3, 25 g ai/ha + 1% MSO): 100
- Herbicide injury evaluation 14 days after herbicide treatment ([5]; Table 3, 75 g ai/ha + 1% MSO): 100
- Herbicide injury evaluation 14 days after herbicide treatment ([5]; Table 3, 150 g ai/ha + 1% MSO): 100
- Herbicide injury evaluation 14 days after herbicide treatment ([5]; Table 4, 25 g ai/ha + 1% MSO): 100
- Herbicide injury evaluation 14 days after herbicide treatment ([5]; Table 4, 75 g ai/ha + 1% MSO): 100
- Herbicide injury evaluation 14 days after herbicide treatment ([5]; Table 4, 150 g ai/ha + 1% MSO): 100
- Tolerance Factor [6]: 4433
- Herbicide injury evaluation 14 days after herbicide treatment ([7]; SEQ ID NO 128 D, 25 g ai/ha + 1% MSO): 85
- Herbicide injury evaluation 14 days after herbicide treatment ([7]; SEQ ID NO 128 D, 75 g ai/ha + 1% MSO): 93
- Herbicide injury evaluation 14 days after herbicide treatment ([7]; SEQ ID NO 128 D, 150 g ai/ha + 1% MSO): 93
- Herbicide injury evaluation 14 days after herbicide treatment ([7]; SEQ ID NO 128 E, 25 g ai/ha + 1% MSO): 85
- Herbicide injury evaluation 14 days after herbicide treatment ([7]; SEQ ID NO 128 E, 75 g ai/ha + 1% MSO): 95
- Herbicide injury evaluation 14 days after herbicide treatment ([7]; SEQ ID NO 128 E, 150 g ai/ha + 1% MSO): 97
- Tolerance Factor [8]: 1500
- Tolerance Factor [9]: 1
- Herbicide injury evaluation 14 days after herbicide treatment ([10]; SEQ ID NO 119 A, 25 g ai/ha + 1% MSO): 100
- Herbicide injury evaluation 14 days after herbicide treatment ([10]; SEQ ID NO 119 A, 75 g ai/ha + 1% MSO): 100
- Herbicide injury evaluation 14 days after herbicide treatment ([10]; SEQ ID NO 119 A, 150 g ai/ha + 1% MSO): 100
- Herbicide injury evaluation 14 days after herbicide treatment ([10]; SEQ ID NO 119 B, 25 g ai/ha + 1% MSO): 100
- Herbicide injury evaluation 14 days after herbicide treatment ([10]; SEQ ID NO 119 B, 75 g ai/ha + 1% MSO): 100
- Herbicide injury evaluation 14 days after herbicide treatment ([10]; SEQ ID NO 119 B, 150 g ai/ha + 1% MSO): 100
- Tolerance Factor [11]: 1
- Tolerance Factor [12]: 9
- Herbicide injury evaluation 14 days after herbicide treatment ([13]; SEQ ID NO 117 C, 25 g ai/ha + 1% MSO): 92
- Herbicide injury evaluation 14 days after herbicide treatment ([13]; SEQ ID NO 117 C, 75 g ai/ha + 1% MSO): 93
- Herbicide injury evaluation 14 days after herbicide treatment ([13]; SEQ ID NO 117 C, 150 g ai/ha + 1% MSO): 97
- Herbicide injury evaluation 14 days after herbicide treatment ([13]; SEQ ID NO 117 I, 25 g ai/ha + 1% MSO): 90
- Herbicide injury evaluation 14 days after herbicide treatment ([13]; SEQ ID NO 117 I, 75 g ai/ha + 1% MSO): 99
- Herbicide injury evaluation 14 days after herbicide treatment ([13]; SEQ ID NO 117 I, 150 g ai/ha + 1% MSO): 98
- Tolerance Factor [14]: 1
- Tolerance Factor [15]: 1
- Herbicide injury evaluation 14 days after herbicide treatment ([16]; SEQ ID NO 121 G, 25 g ai/ha + 1% MSO): 100
- Herbicide injury evaluation 14 days after herbicide treatment ([16]; SEQ ID NO 121 G, 75 g ai/ha + 1% MSO): 100
- Herbicide injury evaluation 14 days after herbicide treatment ([16]; SEQ ID NO 121 G, 150 g ai/ha + 1% MSO): 100
- Herbicide injury evaluation 14 days after herbicide treatment ([16]; SEQ ID NO 121 H, 25 g ai/ha + 1% MSO): 100
- Herbicide injury evaluation 14 days after herbicide treatment ([16]; SEQ ID NO 121 H, 75 g ai/ha + 1% MSO): 100
- Herbicide injury evaluation 14 days after herbicide treatment ([16]; SEQ ID NO 121 H, 150 g ai/ha + 1% MSO): 100
- Herbicide injury evaluation 14 days after herbicide treatment ([17]; Table 3, SEQ ID NO 118 Q, 25 g ai/ha + 1% MSO): 45
- Herbicide injury evaluation 14 days after herbicide treatment ([17]; Table 3, SEQ ID NO 118 Q, 75 g ai/ha + 1% MSO): 50
- Herbicide injury evaluation 14 days after herbicide treatment ([17]; Table 3, SEQ ID NO 118 Q, 150 g ai/ha + 1% MSO): 58
- Herbicide injury evaluation 14 days after herbicide treatment ([17]; Table 3, SEQ ID NO 118 R, 25 g ai/ha + 1% MSO): 20
- Herbicide injury evaluation 14 days after herbicide treatment ([17]; Table 3, SEQ ID NO 118 R, 75 g ai/ha + 1% MSO): 23
- Herbicide injury evaluation 14 days after herbicide treatment ([17]; Table 3, SEQ ID NO 118 R, 150 g ai/ha + 1% MSO): 10
- Herbicide injury evaluation 14 days after herbicide treatment ([17]; Table 4, SEQ ID NO 118 Q, 25 g ai/ha + 1% MSO): 60
- Herbicide injury evaluation 14 days after herbicide treatment ([17]; Table 4, SEQ ID NO 118 Q, 75 g ai/ha + 1% MSO): 63
- Herbicide injury evaluation 14 days after herbicide treatment ([17]; Table 4, SEQ ID NO 118 Q, 150 g ai/ha + 1% MSO): 65
- Herbicide injury evaluation 14 days after herbicide treatment ([17]; Table 4, SEQ ID NO 118 R, 25 g ai/ha + 1% MSO): 18
- Herbicide injury evaluation 14 days after herbicide treatment ([17]; Table 4, SEQ ID NO 118 R, 75 g ai/ha + 1% MSO): 28
- Herbicide injury evaluation 14 days after herbicide treatment ([17]; Table 4, SEQ ID NO 118 R, 150 g ai/ha + 1% MSO): 50
- Herbicide injury evaluation 14 days after herbicide treatment ([18]; SEQ ID NO 120 J, 25 g ai/ha + 1% MSO): 80
- Herbicide injury evaluation 14 days after herbicide treatment ([18]; SEQ ID NO 120 J, 75 g ai/ha + 1% MSO): 94
- Herbicide injury evaluation 14 days after herbicide treatment ([18]; SEQ ID NO 120 J, 150 g ai/ha + 1% MSO): 98
- Herbicide injury evaluation 14 days after herbicide treatment ([18]; SEQ ID NO 120 M, 25 g ai/ha + 1% MSO): 94
- Herbicide injury evaluation 14 days after herbicide treatment ([18]; SEQ ID NO 120 M, 75 g ai/ha + 1% MSO): 98
- Herbicide injury evaluation 14 days after herbicide treatment ([18]; SEQ ID NO 120 M, 150 g ai/ha + 1% MSO): 93

From patent US11959086B2, “Dual transit peptides for targeting polypeptides” (BASF AGRO B.V., priority 2016, dated 2024)
